Assay results taken from PubChem BioAssay AID246 (DTP/NCI, 2004).
Where “and” joins values, the source holds several entries; their conditions need not be identical. Equal values may be shown once. Toxic doses and inconclusive results are not listed. The calls were made as follows: active = survival T/C of 150% or more; inactive = T/C below 125% in these data.

System: BDF1 mice, P1081 chloroleukemia ip, survival T/C
Assay: NCI In Vivo Anticancer Drug Screen. Data for tumor model P1081 Chloroleukemia (intraperitoneal) in B6D2F1 (BDF1) mice
Details: endpoint: mean survival time, higher = longer survival
Procedure: The antitumor activity of compounds was measured in mice bearing transplantable tumors. Survival or tumor size were measured and the results are expressed as the measurement made in the treated group (T) divided by the measurement made in the vehicle treated control group (C). The tumor model used in this assay is P1081 Chloroleukemia (intraperitoneal) in B6D2F1 (BDF1) mice

[1] = dose: 2.0 mg/kg/injection, schedule: Q01DX010 (ip), vehicle: saline
[2] = dose: 4.0 mg/kg/injection, schedule: Q01DX010 (ip), vehicle: saline
[3] = dose: 8.0 mg/kg/injection, schedule: Q01DX010 (ip), vehicle: saline
[4] = dose: 10.0 mg/kg/injection, schedule: Q01DX010 (ip), vehicle: saline
[5] = dose: 20.0 mg/kg/injection, schedule: Q01DX010 (ip), vehicle: saline
[6] = dose: 40.0 mg/kg/injection, schedule: Q01DX010 (ip), vehicle: saline
[7] = dose: 62.5 mg/kg/injection, schedule: Q01DX010 (ip), vehicle: saline
[8] = dose: 125.0 mg/kg/injection, schedule: Q01DX010 (ip), vehicle: saline
[9] = dose: 31.25 mg/kg/injection, schedule: Q01DX Z (ip), vehicle: carboxymethylcellulose (CMC)
[10] = dose: 62.5 mg/kg/injection, schedule: Q01DX Z (ip), vehicle: carboxymethylcellulose (CMC)
[11] = dose: 125.0 mg/kg/injection, schedule: Q01DX Z (ip), vehicle: carboxymethylcellulose (CMC)
[12] = dose: 250.0 mg/kg/injection, schedule: Q01DX Z (ip), vehicle: carboxymethylcellulose (CMC)
[13] = dose: 0.5 mg/kg/injection, schedule: Q01DX010 (ip), vehicle: saline
[14] = dose: 1.0 mg/kg/injection, schedule: Q01DX010 (ip), vehicle: saline
[15] = dose: 12.5 mg/kg/injection, schedule: Q01DX Z (ip), vehicle: carboxymethylcellulose (CMC)
[16] = dose: 25.0 mg/kg/injection, schedule: Q01DX Z (ip), vehicle: carboxymethylcellulose (CMC)
[17] = dose: 50.0 mg/kg/injection, schedule: Q01DX Z (ip), vehicle: carboxymethylcellulose (CMC)
[18] = dose: 31.3 mg/kg/injection, schedule: Q01DX010 (ip), vehicle: saline
[19] = dose: 250.0 mg/kg/injection, schedule: Q01DX010 (ip), vehicle: saline

Measured: T/C

O=c1cnn(C2OC(CO)C(O)C2O)c(=O)[nH]1 (centres undefined)
inactive: dose: 62.5 mg/kg/injection, schedule: Q01DX Z (ip), vehicle: water 94 % of control | dose: 125.0 mg/kg/injection, schedule: Q01DX Z (ip), vehicle: water 120 % of control and 90 % of control | dose: 250.0 mg/kg/injection, schedule: Q01DX Z (ip), vehicle: water 116 % of control and 121 % of control | dose: 500.0 mg/kg/injection, schedule: Q01DX Z (ip), vehicle: water 120 % of control | dose: 1000.0 mg/kg/injection, schedule: Q01DX Z (ip), vehicle: water 92 % of control | dose: 1600.0 mg/kg/injection, schedule: Q01DX010 (ip), vehicle: saline 100 % of control

O=C(Nc1ccc(NC2=NCCN2)cc1)c1ccc(C(=O)Nc2ccc(NC3=NCCN3)cc2)cc1
active: [1] 161 % of control | [2] 300 % of control and 333 % of control | [3] 300 % of control and 333 % of control | dose: 8.0 mg/kg/injection, schedule: Q01DX Z (ip), vehicle: saline 153 % of control and 171 % of control | dose: 16.0 mg/kg/injection, schedule: Q01DX Z (ip), vehicle: saline 190 % of control
inactive: dose: 2.0 mg/kg/injection, schedule: Q01DX Z (ip), vehicle: saline 96 % of control | dose: 32.0 mg/kg/injection, schedule: Q01DX Z (ip), vehicle: saline 96 % of control

N=C(N)SCc1c2ccccc2c(CSC(=N)N)c2ccccc12
active: dose: 2.5 mg/kg/injection, schedule: Q01DX010 (ip), vehicle: saline 220 % of control | dose: 5.0 mg/kg/injection, schedule: Q01DX010 (ip), vehicle: saline 183 % of control and 210 % of control | [4] 155 % of control and 240 % of control | [5] 172 % of control and 200 % of control
inactive: [6] 122 % of control

c1ccc(CCSc2ncnc3nc[nH]c23)cc1
inactive: [7] 120 % of control | [8] 120 % of control

O=c1[nH]cc(F)c(=O)[nH]1
active: [4] 161 % of control and 165 % of control | dose: 12.5 mg/kg/injection, schedule: Q01DX Z (ip), vehicle: saline 150 % of control | [5] 200 % of control and 230 % of control
inactive: dose: 1.56 mg/kg/injection, schedule: Q01DX Z (ip), vehicle: saline 99 % of control | [6] 110 % of control and 94 % of control | dose: 50.0 mg/kg/injection, schedule: Q01DX Z (ip), vehicle: saline 108 % of control | dose: 100.0 mg/kg/injection, schedule: Q01DX Z (ip), vehicle: saline 96 % of control

Clc1ncnc2nc[nH]c12
inactive: dose: 7.5 mg/kg/injection, schedule: Q01DX010 (ip), vehicle: saline 110 % of control and 90 % of control | dose: 15.0 mg/kg/injection, schedule: Q01DX010 (ip), vehicle: saline 90 % of control and 100 % of control | dose: 30.0 mg/kg/injection, schedule: Q01DX010 (ip), vehicle: saline 110 % of control and 95 % of control | [9] 98 % of control | dose: 60.0 mg/kg/injection, schedule: Q01DX010 (ip), vehicle: saline 110 % of control and 104 % of control | [10] 107 % of control and 105 % of control | [11] 114 % of control and 121 % of control | [12] 86 % of control and 94 % of control

CS(=O)(=O)OCCN(CCOS(C)(=O)=O)c1ccc(N=O)cc1
inactive: [13] 122 % of control | [14] 104 % of control
active: dose: 62.5 micrograms/kg/injection, schedule: Q01DX010 (ip), vehicle: saline 155 % of control | dose: 125.0 micrograms/kg/injection, schedule: Q01DX010 (ip), vehicle: saline 194 % of control | dose: 250.0 micrograms/kg/injection, schedule: Q01DX010 (ip), vehicle: saline 277 % of control | dose: 500.0 micrograms/kg/injection, schedule: Q01DX010 (ip), vehicle: saline 238 % of control

CN(C)c1ccc(Nc2c3ccccc3nc3ccccc23)cc1
inactive: dose: 6.25 mg/kg/injection, schedule: Q01DX Z (ip), vehicle: carboxymethylcellulose (CMC) 101 % of control | [15] 88 % of control | [16] 90 % of control | dose: 36.0 mg/kg/injection, schedule: Q01DX010 (ip), vehicle: saline 104 % of control | [17] 95 % of control | dose: 100.0 mg/kg/injection, schedule: Q01DX Z (ip), vehicle: carboxymethylcellulose (CMC) 103 % of control

O=CCC(O)C(O)C(O)CO (centres undefined)
inactive: [9] 95 % of control | [10] 88 % of control | [11] 88 % of control | [12] 97 % of control

Nc1nc(F)nc2c1ncn2C1OC(CO)C(O)C1O (centres undefined)
inactive: dose: 0.25 mg/kg/injection, schedule: Q01DX010 (ip), vehicle: saline 100 % of control | [13] 94 % of control | [14] 110 % of control and 100 % of control | [1] 111 % of control and 105 % of control | [2] 95 % of control

Nc1c(Br)cc2c(c1Br)Cc1cc([N+](=O)[O-])ccc1-2
inactive: dose: 15.6 mg/kg/injection, schedule: Q01DX010 (ip), vehicle: saline 100 % of control | [18] 105 % of control | [7] 110 % of control and 100 % of control | [8] 100 % of control | [19] 100 % of control | dose: 500.0 mg/kg/injection, schedule: Q01DX010 (ip), vehicle: saline 95 % of control

CC(=O)Nc1ccc2nc3ccc(NC(C)=O)cc3[n+](-c3ccccc3)c2c1
inactive: [15] 103 % of control | [16] 109 % of control | [17] 111 % of control

COc1ccc2c(c1OC)C(=O)O[C@@H]2[C@H]1c2c(cc3c(c2OC)OCO3)CCN1C
inactive: [18] 88 % of control and 90 % of control | [7] 88 % of control and 95 % of control | [8] 88 % of control and 90 % of control | [19] 88 % of control and 90 % of control

N[C@@H](Cc1ccc(N(CCCl)CCCl)cc1)C(=O)O
inactive: dose: 10.0 mg/kg/injection, schedule: Q01DX Z (ip), vehicle: saline 107 % of control
active: dose: 0.31 mg/kg/injection, schedule: Q01DX Z (ip), vehicle: saline 159 % of control | dose: 0.63 mg/kg/injection, schedule: Q01DX Z (ip), vehicle: saline 206 % of control | dose: 1.25 mg/kg/injection, schedule: Q01DX Z (ip), vehicle: saline 193 % of control | dose: 2.5 mg/kg/injection, schedule: Q01DX Z (ip), vehicle: saline 229 % of control | dose: 5.0 mg/kg/injection, schedule: Q01DX Z (ip), vehicle: saline 217 % of control

CS(=O)(=O)OCCC(=O)N1CCN(C(=O)CCOS(C)(=O)=O)CC1
active: dose: 25.0 mg/kg/injection, schedule: Q01DX010 (ip), vehicle: saline 150 % of control and 285 % of control | dose: 50.0 mg/kg/injection, schedule: Q01DX010 (ip), vehicle: saline 260 % of control and 277 % of control
120 % of control and 205 % of control: dose: 100.0 mg/kg/injection, schedule: Q01DX010 (ip), vehicle: saline

Nc1nc(=S)c2[nH]cnc2[nH]1
inactive: dose: 1.0 mg/kg/injection, schedule: Q01DX Z (ip), vehicle: carboxymethylcellulose (CMC) 91 % of control | dose: 2.5 mg/kg/injection, schedule: Q01DX010 (ip), vehicle: other 110 % of control and 113 % of control | dose: 5.0 mg/kg/injection, schedule: Q01DX010 (ip), vehicle: other 110 % of control | dose: 31.2 micrograms/kg/injection, schedule: Q01DX Z (ip), vehicle: carboxymethylcellulose (CMC) 100 % of control | dose: 62.5 micrograms/kg/injection, schedule: Q01DX Z (ip), vehicle: carboxymethylcellulose (CMC) 103 % of control
active: dose: 0.25 mg/kg/injection, schedule: Q01DX Z (ip), vehicle: carboxymethylcellulose (CMC) 169 % of control | dose: 1.25 mg/kg/injection, schedule: Q01DX010 (ip), vehicle: other 150 % of control | dose: 250.0 micrograms/kg/injection, schedule: Q01DX Z (ip), vehicle: carboxymethylcellulose (CMC) 155 % of control

O=C(Nc1ccc(C2=NCCN2)cc1)c1ccc(C(=O)Nc2ccc(C3=NCCN3)cc2)c([N+](=O)[O-])c1
inactive: dose: 18.0 mg/kg/injection, schedule: Q01DX010 (ip), vehicle: saline 120 % of control and 122 % of control
active: dose: 6.0 mg/kg/injection, schedule: Q01DX010 (ip), vehicle: saline 260 % of control and 288 % of control | [3] 285 % of control and 311 % of control | dose: 12.0 mg/kg/injection, schedule: Q01DX010 (ip), vehicle: saline 166 % of control and 250 % of control

CN1CC[C@]23c4c5ccc(O)c4O[C@H]2C(=O)CC[C@H]3[C@H]1C5
inactive: [1] 105 % of control | [2] 90 % of control and 100 % of control | [3] 90 % of control and 105 % of control | dose: 16.0 mg/kg/injection, schedule: Q01DX010 (ip), vehicle: saline 90 % of control and 100 % of control
